Assay results from article PMC3511469, “Five Different Piscidins from Nile Tilapia, Oreochromis niloticus: Analysis of Their Expressions and Biological Functions” (PLoS ONE, 2012).
Where no end group is shown, it is not given here.

Experiments:
[1] = test system: methicillin-resistant Staphylococcus aureus (MRSA); conditions: in vitro assay; synthetic peptide; cited from earlier work
Source text: Piscidins are cationic AMPs expressed by fish mast cells. […] The piscidin family includes pleurocidin, moronecidin, chrysophsin, dicentracin, epinecidin-1, and myxinidin. Piscidins have a widespread presence in higher teleosts, so far including 11 species in eight families of the Moronidae, Sciaenidae, Sparidae, Latidae, Siganidae, Belontida ...

V. vulnificus 204 = type: cell-based, Vibrio vulnificus; conditions: 204, pH 7.4
Description: (§1) Escherichia coli for transformation was cultured in LB medium at 37°C.
(§2) Peptides were synthesized by GL Biochem (Shanghai, China) using a solid-phase procedure of Fmoc chemistry. Crude peptides were extracted, lyophilized, and purified by reverse-phase high-performance liquid chromatography (HPLC). The molecular masses and purities of the purified peptides were respectively verified by mass spectroscopy and HPLC. Synthetic peptides at >95% purity were reconstituted in phosphate-buffered saline (PBS; pH 7.4) for the experiments. The TP1 sequence was FDWDSVLKGVEGFVRGYF, the TP2 sequence was […], the TP3 sequence was […], the TP4 sequence was […], the TP5 sequence was […], the epinecidin-1 (Epi-1) sequence was […], and the cod pis 1 sequence was […]. C terminals of all synthetic peptides were amidated. The minimal inhibitory concentration (MIC) was measured for each strain of microorganism listed above. The MICs of the peptides were determined by a broth microdilution analysis based on an online method (http://cmdr.ubc.ca/bobh/methods/MODIFIEDMIC.html; Hancock Laboratory Methods. Department of Microbiology and Immunology, University of British Columbia, British Columbia, Canada) without modification.

A. hydrophila BCRC 13018 = type: cell-based, Aeromonas hydrophila; conditions: BCRC 13018, pH 7.4
Description: as §1, §2

V. alginolyticus = type: cell-based, Vibrio alginolyticus; conditions: pH 7.4
Description: as §1, §2

P. aeruginosa ATCC 19660 = type: cell-based, Pseudomonas aeruginosa; conditions: ATCC 19660, pH 7.4
Description: as §1, §2

S. agalactiae 819 = type: cell-based, Streptococcus agalactiae; conditions: 819, pH 7.4
Description: as §1, §2

S. agalactiae BCRC 10787 = type: cell-based, Streptococcus agalactiae; conditions: BCRC 10787, pH 7.4
Description: as §1, §2

E. faecalis BCRC 10066 = type: cell-based, Enterococcus faecalis; conditions: BCRC 10066, pH 7.4
Description: as §1, §2

human erythrocytes = type: cell-based
Description: (§3) The hemolytic activities of Nile tilapia piscidins were determined according to a previous method, [34]. In brief, erythrocytes of tilapia (2×10^7 cells) were washed three times with 0.9% NaCl and incubated with various concentrations of the peptides for 3 h at 37°C. After centrifugation, the absorbance at 545 nm of the suspension was determined. Erythrocytes in PBS (Ablank) and 0.1% Triton X-100 (Atriton) respectively served as the negative and positive controls. The percentage of hemolysis was calculated according to the equation described in a previous publication. The hemolysis assay was performed in triplicate.
Supplementary file pone.0050263.s004.tif: Figure S4 In vitro assays used HeLa (ATCC: CCL-2™), RAW264.7 (ATCC: TIB-71™), and MRC-5 (ATCC: CCL-171™) cells. Tumor cells (HeLa and RAW264.7 cells) and normal cells (MRC-5) were treated with different doses of piscidin peptides (TP1∼5) for 24 h, followed by an MTS assay. Each concentration was repeated in eight wells for three independent experiments. Results are expressed as a percentage of the survival rate of viable cells. Piscidin treatment affected cell viability in a dose-dependent manner. There were significant differences between treatment groups for TP4 and TP3. Data are from three separate experiments. Hemolytic activities of TP1∼5 against human erythrocytes. […]

erythrocytes of tilapia = type: cell-based
Description: as §3

Row | Substance | MIC [1] [µM] | MIC (V. vulnificus 204) [µg/mL] | MIC (A. hydrophila BCRC 13018) [µg/mL] | MIC (V. alginolyticus) [µg/mL] | MIC (P. aeruginosa ATCC 19660) [µg/mL] | MIC (S. agalactiae 819) [µg/mL] | MIC (S. agalactiae BCRC 10787) [µg/mL] | MIC (E. faecalis BCRC 10066) [µg/mL] | hemolytic activity toward human erythrocytes (human erythrocytes) | concentration at which the hemolytic effect began (erythrocytes of tilapia) [ng/mL] | concentration at which the hemolytic effect began (human erythrocytes) [ng/mL]
1 | FFHHIFRGIVHVGKTIHRLVTG [piscidin 1, synthetic piscidin 1, literature values] | 3.1 | – | – | – | – | – | – | – | – | – | –
2 | FIHHIIGGLFSVGKHIHSLIHGH-NH2 [TP3] | – | 2.44 | >19.55 | 2.44 | >19.55 | 9.78 | 0.61 | 19.55 | low hemolytic activity | – | –
3 | FDWDSVLKGVEGFVRGYF-NH2 [TP1] | – | >23.57 | >23.57 | >23.57 | >23.57 | >23.57 | >23.57 | >23.57 | – | – | –
4 | QLQGKQVSGEVVQKVLQELIQSVAKP-NH2 [TP5] | – | >17.64 | >17.64 | >17.64 | >17.64 | >17.64 | >17.64 | >17.64 | – | – | –
5 | GECIWDAIFHGAKHFLHRLVNP-NH2 [TP2] | – | >19.52 | >19.52 | >19.52 | >19.52 | >19.52 | >19.52 | >19.52 | – | – | –
6 | FIHHIIGWISHGVRAIHRAIHG-NH2 [cod Pis 1, reference compound] | – | 0.62 | 19.78 | 1.24 | >19.78 | 9.89 | 0.31 | 9.89 | – | – | –
7 | GFIFHIIKGLFHAGKMIHGLV-NH2 [Epi-1, epinecidin-1, reference compound] | – | 0.67 | >21.41 | 2.68 | 10.70 | >21.41 | 0.33 | >21.41 | – | – | –
8 | FIHHIIGGLFSAGKAIHRLIRRRRR-NH2 [TP4] | – | 0.03 | 1.05 | 0.03 | 0.52 | 2.10 | 0.13 | 8.39 | – | 400 to 800 | 400 to 800
